Ten molecules from patent publication US9822118B2, “Bicyclic heteroaryl urea, thiourea, guanidine and cyanoguanidine compounds as TrkA kinase inhibitors” (Array BioPharma Inc., priority 2012, dated 2017) can be followed below.

Bounds are passed on as bounds.

The target in this assay is T1, recombinant human TrkA (Homo sapiens, UniProt P04629).
T1 construct: 6HIS tagged cytoplasmic domain from Invitrogen, Catalog No. PV3144; purchased Invitrogen PV3144
T1 sequence (P04629 440-796 limits assumed): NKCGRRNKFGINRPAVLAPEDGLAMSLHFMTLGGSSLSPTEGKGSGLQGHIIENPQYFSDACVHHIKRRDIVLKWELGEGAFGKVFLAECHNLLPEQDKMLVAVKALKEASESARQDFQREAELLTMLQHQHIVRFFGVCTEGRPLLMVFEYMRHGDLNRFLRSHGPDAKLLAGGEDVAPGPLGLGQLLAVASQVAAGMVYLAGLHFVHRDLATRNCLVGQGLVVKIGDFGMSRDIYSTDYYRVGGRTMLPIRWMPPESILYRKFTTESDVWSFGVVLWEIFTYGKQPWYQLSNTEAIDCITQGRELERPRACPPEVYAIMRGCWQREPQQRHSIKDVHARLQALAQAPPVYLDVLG
Briefly: TrkA LanthaScreen Eu Kinase Binding Assay. The note with it: averaged IC50; TR-FRET binding assay, 60 min at 22° C.; read-out: TrkA Enzyme IC50. Here is the method:
TrkA binding activity was determined in a TrkA LanthaScreen™ Eu Kinase Binding Assay. 5 nM His-tagged recombinant human TrkA (6HIS tagged cytoplasmic domain from Invitrogen, Catalog No. PV3144) was incubated with 4 nM Alexa-Fluor® Tracer 236 (Invitrogen Cat. No. PV5592), 2 nM biotinylated anti-His (Invitrogen Cat. No. PV6090), and 2 nM europium-labeled Streptavidin (Invitrogen Cat. No. PV5899), in buffer (25 mM MOPS, pH 7.5, 5 mM MgCl2, 0.005% Triton X-100). Three fold serial dilutions of compounds of the invention in DMSO were added to a final percentage of 2% DMSO. After 60-minute incubation at 22° C., the reaction was measured using the EnVision multimode plate reader (PerkinElmer) via TR-FRET dual wavelength detection at […]. The percent of control was calculated using a ratiometric emission factor. The IC50 values were determined by fitting a four parameter model to the percent of control data.
Table A provides averaged IC50 values for compounds of the invention when tested in the assay of Example A, where A represents an averaged IC50 value <100 nM; and B represents an averaged IC50 value from 100 to 1,000 nM.
One may read the IC50 as the midpoint of a concentration-inhibition curve. With `O=C(Nc1c2c(nn1-c1ccccc1)CCCC2)Nc1c(-c2ccccc2)nc2c(C(F)(F)F)cccn12` [Example 20, 1-(2-phenyl-4,5,6,7-tetrahydro-2H-indazol-3-yl)-3-(2-phenyl-8-(trifluoromethyl)imidazo[1,2-a]pyridin-3-yl)urea], the IC50 is < 100 nM.

With `Cc1c(OC[C@@H](C)O)nn(-c2ccccc2)c1NC(=O)Nc1c(-c2ccccc2)nc2c(C(F)(F)F)cccn12` [Example 27, (R)-1-(3-(2-hydroxypropoxy)-4-methyl-1-phenyl-1H-pyrazol-5-yl)-3-(2-phenyl-8-(trifluoromethyl)imidazo[1,2-a]pyridin-3-yl)urea], the IC50 was < 100 nM.

As for `CCOc1nn(-c2ccccc2)c(NC(=O)Nc2c(-c3ccccc3)nc3c(C)cccn23)c1C` [Example 7, 1-(3-ethoxy-4-methyl-1-phenyl-1H-pyrazol-5-yl)-3-(8-methyl-2-phenylimidazo[1,2-a]pyridin-3-yl)urea], the IC50 is < 100 nM.

Turning to `Cc1c(-c2cnn(C)c2)nn(-c2ccccc2)c1NC(=O)Nc1c(-c2ccccc2)nc2c(C(F)(F)F)cccn12` [Example 30, 1-(1′,4-dimethyl-1-phenyl-1H,1′H-[3,4′-bipyrazol]-5-yl)-3-(2-phenyl-8-(trifluoromethyl)imidazo[1,2-a]pyridin-3-yl)urea], the IC50 was < 100 nM.

With `Cc1c(OC[C@H](O)CO)nn(-c2ccccc2)c1NC(=O)Nc1c(-c2ccccc2)nc2c(C(F)(F)F)cccn12` [Example 28, (R)-1-(3-(2,3-dihydroxypropoxy)-4-methyl-1-phenyl-1H-pyrazol-5-yl)-3-(2-phenyl-8-(trifluoromethyl)imidazo[1,2-a]pyridin-3-yl)urea], the IC50 was < 100 nM.

As for `Cc1c(OCC(C)(C)O)nn(-c2ccccc2)c1NC(=O)Nc1c(-c2ccccc2)nc2c(C(F)(F)F)cccn12` [Example 26, 1-(3-(2-hydroxy-2-methylpropoxy)-4-methyl-1-phenyl-1H-pyrazol-5-yl)-3-(2-phenyl-8-(trifluoromethyl)imidazo[1,2-a]pyridin-3-yl)urea], the IC50 is < 100 nM.

Regarding `CCOc1nn(-c2ccccc2)c(NC(=O)Nc2c(-c3ccccc3)nc3ccccn23)c1C` [Example 5, 1-(3-ethoxy-4-methyl-1-phenyl-1H-pyrazol-5-yl)-3-(2-phenylimidazo[1,2-a]pyridin-3-yl)urea], the half-inhibitory concentration (IC50) was in the range of 100 to 1000 nM.

Take `COCc1nn(-c2ccccc2)c(NC(=O)Nc2c(-c3ccccc3)nc3c(C(F)(F)F)cccn23)c1C` [Example 31, 1-(3-(methoxymethyl)-4-methyl-1-phenyl-1H-pyrazol-5-yl)-3-(2-phenyl-8-(trifluoromethyl)imidazo[1,2-a]pyridin-3-yl)urea]: the half-maximal inhibitory concentration (IC50) lay in the range of 100 to 1000 nM.

In the case of `CCOc1nn(-c2ccccc2)c(NC(=O)Nc2c(-c3ccccc3)nc3c(F)cccn23)c1C` [Example 6, 1-(3-ethoxy-4-methyl-1-phenyl-1H-pyrazol-5-yl)-3-(8-fluoro-2-phenylimidazo[1,2-a]pyridin-3-yl)urea], the 50% inhibitory concentration (IC50) lay in the range of 100 to 1000 nM.

Regarding `COC[C@@H](O)COc1nn(-c2ccccc2)c(NC(=O)Nc2c(-c3ccccc3)nc3c(C(F)(F)F)cccn23)c1C` [Example 35, (R)-1-(3-(2-hydroxy-3-methoxypropoxy)-4-methyl-1-phenyl-1H-pyrazol-5-yl)-3-(2-phenyl-8-(trifluoromethyl)imidazo[1,2-a]pyridin-3-yl)urea], the concentration for half-maximal inhibition (IC50) lay within 100 to 1000 nM.
